Experimental data published in US20210023223A1, “HYDROCARBON / LIPID - CAROTENOID COMPLEXES” (IP SCIENCE LIMITED, priority 2018, published 2021).
Where two headings read alike, the source gives them in different places.

Legend:
[1] = Size of Sunflower Oil lipid droplets, microscopy; assay type: physicochemical; set-up: Size of Sunflower Oil lipid droplets, Mean / Sunflower Oil lipid droplets, Droplet square: unit not given here
Description: (§1) For measurement of lipid droplets and fat globules and quantification of their size binocular microscope Olympus BX41 was used with Cell^B software for morphometric analysis. All parameters were collected from 10 randomly selected microscopic fields at ×1000).

[2] = Spreadability of oil drops on the surface of water; assay type: physicochemical
Experimental: (§2) 1. A petri dish of 13.5 cm diameter was filled to the brim with unheated water.
(§3) 2. 0.3 ml of Olive or Sunflower oil was dropped onto the surface from a standardised height (30 cm) using a 1 ml pipette.
(§4) 3. The resultant droplets were photographed and measured 30 sec after impact.
(§5) 4. For increased reliability, the procedure was repeated 5 times.
(§6) 5. Steps 1-4 were then repeated for Olive and Sunflower oils with or without carotenoids in different concentrations.

[3] = test system: moderately obese volunteers; test: Serum lipids after 20 mg lycopene for 1 month; assay type: in vivo, human
Experimental: (§7) Study Design. The total number of volunteers recruited to take part in the study was 18 (9 male and 9 female subjects) Caucasians 40-67 years old.
(§8) Products Formulated with Lycopene was developed and made by Lycotec Ltd. (Cambridge, United Kingdom). The daily dose was 1 capsule of 20 mg of lycopene, and it was taken with the main meal of the day. The period of administration was 1 month.
(§9) Blood was collected by phlebotomy in the morning, in the hospital, from the arm veins of patients following night fast. The serum was separated from the rest of the clotted mass by centrifugation; aliquots were then stored in code-labelled tubes for blinded analysis and stored at −80° C. until use.

[4] = Size of lipid droplets of dairy butter, microscopy; assay type: physicochemical
Description: as §1
Incorporation of lycopene into the butter led to a significant increase in the size of its lipid droplets and many reached more than 100 or even 300 fold of their diameter. This effect was dose-dependent, and can already be observed for less than 1 molecule of lycopene to 224,000 molecules of butter triglycerides.

[5] = Size of Cod Liver oil lipid structures, microscopy; assay type: physicochemical
Description: as §1
The effect of adding lycopene into another polyunsaturated oil, in this case cod liver oil, was a dose-dependent increase in the size of its lipid structures. For Olive and Sunflower oils this increase in diameter caused by lycopene could reach 20 fold, for Canola and Cod Liver oil it was 50 or 100 fold.

[6] = Lycopene in serum and cerumen after 20 mg lycopene for 1 month; assay type: in vivo, human; settings: n = 18; for concentration at 1 month: both sexes, human, oral, after 20 mg lycopene daily for one month
Experimental: as §7, §8, §9
For sample collection from the surface of the facial skin and samples of the cerumen all study participants were requested to avoid facial and ear hygienic manipulations for 24 hours before sampling, which was carried out in the morning in parallel with blood sample collection. Skin surface sample collection and preparation was performed as previously described. Briefly, samples were collected using polyester swabs from the surface of the facial skin (the sides of the nose). During the procedure two samples were taken (one swab per side). Each collected sample was placed on the surface of a microscope slide. A second microscope slide was pressed against the surface of the first one. This procedure provided a pair of identical smears. All slides with collected samples were coded to provide sample anonymity for blinded analysis and stored at −20° C. until further analysis.
The lycopene concentration in all serum samples was measured in duplicate by high-performance liquid chromatography with modifications. Briefly, 400 μl of serum was mixed with 400 μl of ethanol and was extracted twice with 2 ml hexane. The combined hexane layers were evaporated to dryness in a vacuum (Scan Speed 32 centrifuge) and the residue reconstituted to a volume of 100 μl in sample solution (absolute ethanol—methylene chloride, 5:1, v/v). The specimens were centrifuged again (15 minutes at 10,000 g) and clear supernatant was transferred to HPLC vials. Five microliters of the extract was injected into an Acquity HSS T3 75×2.1 mm 1.8 μm column (Waters, USA) preceded by a Acquity HSS T3 1.8 μm VanGuard precolumn (Waters, USA) and eluted isocratically at 45° C. with the mobile phase (acetonitrile—0.08% phosphoric acid solution—tert-Butyl methyl ether, 70:5:25, v/v/v) at a flow rate of 0.5 ml/min. The lycopene peak was detected by a Photodiode Array Detector (Waters, USA) at 474 nm. The peak area was measured using Empower 3 software (Waters, Mass.). The lycopene concentration in serum samples was calculated by reference to an analytical standard (lycopene from tomato, L9879, Sigma, USA).

[7] = test system: moderately obese volunteers; test: LDL-Px, serum LDL peroxidase proteins; assay type: in vivo, human
Experimental: as §7, §8
LDL-Px and Lipoprotein O2. Activity of serum LDL peroxidase proteins, which include IgG with superoxide dismutase activity, was measured as described previously. Plasma oxygen, which carried by blood lipids/lipoproteins was measured by catalymetry.

[8] = Spreadability of oil drops on the surface of water; assay type: physicochemical; remark: listed apart in the source
Experimental: as §2, §3, §4, §5, §6

[9] = Heating dairy butter to boiling point; assay type: physicochemical
Experimental: Small pieces of butter (about 1 g) were placed in a metallic tray. They were heated to 350° C. (Revotherm, Scientific Instruments Ltd.) and boiled for 3 minutes. Time taken to reach boiling point was fixed with a laboratory timer (QUANTUM).

[10] = Size of beef fat globules, microscopy; assay type: physicochemical
Description: as §1, with “×1000). In case of beef fat, lycopene incorporation led to a smaller increase of its fat globules, only by 30%, FIG. 3.” for “×1000).”

[11] = lycopene dose 0.1 per 30 g of the oil
[12] = lycopene dose 0.5 per 30 g of the oil
[13] = lycopene dose 1.0 per 30 g of the oil
[14] = lycopene dose 2.0 per 30 g of the oil
[15] = lycopene dose 3.5 per 30 g of the oil
[16] = lycopene dose 7.0 per 30 g of the oil
[17] = lycopene dose 10.0 per 30 g of the oil
[18] = 1 molecule of lycopene within about 120,000 molecules of oil lipids
[19] = after 20 mg lycopene daily for one month

Size of Sunflower Oil lipid droplets, Mean [1, 11]: 65.16
Sunflower Oil lipid droplets, Droplet square [1, 11]: 0.36
Size of Sunflower Oil lipid droplets, Mean [1, 12]: 144.82
Sunflower Oil lipid droplets, Droplet square [1, 12]: 1.20
Size of Sunflower Oil lipid droplets, Mean [1, 13]: 79.73
Sunflower Oil lipid droplets, Droplet square [1, 13]: 0.72
Size of Sunflower Oil lipid droplets, Mean [1, 14]: 149.25
Sunflower Oil lipid droplets, Droplet square [1, 14]: 1.32
Size of Sunflower Oil lipid droplets, Mean [1, 15]: 286.00
Sunflower Oil lipid droplets, Droplet square [1, 15]: 4.03
Size of Sunflower Oil lipid droplets, Mean [1, 16]: 202.78
Sunflower Oil lipid droplets, Droplet square [1, 16]: 3.44
Size of Sunflower Oil lipid droplets, Mean [1, 17]: 434.81
Sunflower Oil lipid droplets, Droplet square [1, 17]: 20.71
Increase in lipid droplet diameter, could reach ([1]; sunflower oil): 20 fold
Diameter of spread lipid drops relative to intact oil [2, 18]: 6-8 fold
Increase of spreadability on the surface of the water ([2]; olive oil): 11 fold
Size of butter lipid droplets, Mean ([4]; lycopene dose 0.1 per 30 g of butter): 34.32 μm
Size of butter lipid droplets, Mean ([4]; lycopene dose 0.5 per 30 g of butter): 60.39 μm
Size of butter lipid droplets, Mean ([4]; lycopene dose 1.0 per 30 g of butter): 92.35 μm
Size of butter lipid droplets, Mean ([4]; lycopene dose 3.5 per 30 g of butter): 90.18 μm
Size of butter lipid droplets, Mean ([4]; lycopene dose 7.0 per 30 g of butter): 178.95 μm
Size of butter lipid droplets, Mean ([4]; lycopene dose 10.0 per 30 g of butter): 141.17 μm
Increase in the size of butter lipid droplets (diameter) ([4]; many droplets, 'more than 100 or even 300 fold'): more than 100 fold
Increase in lipid droplet diameter [5]: 100 fold
Lycopene in cerumen ([6]; before): 0.29 ± 0.05 ng/mg
Lycopene in serum ([6]; before): 137 ± 14.5 ng/mL
concentration at 1 month ([6]; cerumen, read-out: Lycopene in cerumen): 900 ± 120 ng/g
concentration at 1 month ([6]; serum, read-out: Lycopene in serum): 310 ± 29.9 ng/mL
Diameter of spread lipid drops relative to intact oil [8, 18]: 6-8 fold
Increase of spreadability on the surface of the water ([8]; sunflower oil): 23 fold
Reduction of time to bring butter to its boiling point ([9]; number of lycopene molecules increased to 10): 75%
Reduction of time to bring butter to its boiling point ([9]; one molecule of lycopene to more than 22,000 molecules of butter triglycerides): 25%
Increase of beef fat globules [10]: 30%
SMILES: CC(C)=CCC/C(C)=C/C=C/C(C)=C/C=C/C(C)=C/C=C/C=C(C)/C=C/C=C(C)/C=C/C=C(\C)CCC=C(C)C [Lycopene]
HDL [3, 19]: 49.9 ± 3.0^ mg/dL
LDL [3, 19]: 121 ± 10.5 mg/dL
Triglycerides [3, 19]: 128 ± 9.7 mg/dL
HDL ([3]; before, n = 18): 49.2 ± 2.9^ mg/dL
LDL ([3]; before, n = 18): 134 ± 11.3 mg/dL
Triglycerides ([3]; before, n = 18): 136 ± 10.1 mg/dL
LDL-Px [7, 19]: 286 ± 29^ ELISA × 10^3
LDL-Px ([7]; before, n = 18): 545 ± 49^ ELISA × 10^3
